Publication PMC10226132, “First-in-Class Selective Inhibitors of the Lysine Acetyltransferase KAT8” (Journal of Medicinal Chemistry, 2023)
Like-named read-outs stand apart in the source and are kept apart here.

Assays:
Assay type in all cases: biochemical
KAT8 = target: T1, KAT8 (Homo sapiens, UniProt Q9H7Z6); assay: Radioactive KAT8 inhibition assay
T1 construct: using the previously purified KAT8 (173–458, 5 nM); 6xHis tag with TEV protease cleavage site (N, cleaved yes); made in house; host or cells: E. coli BL21(DE3)
T1 sequence (Q9H7Z6 173-458): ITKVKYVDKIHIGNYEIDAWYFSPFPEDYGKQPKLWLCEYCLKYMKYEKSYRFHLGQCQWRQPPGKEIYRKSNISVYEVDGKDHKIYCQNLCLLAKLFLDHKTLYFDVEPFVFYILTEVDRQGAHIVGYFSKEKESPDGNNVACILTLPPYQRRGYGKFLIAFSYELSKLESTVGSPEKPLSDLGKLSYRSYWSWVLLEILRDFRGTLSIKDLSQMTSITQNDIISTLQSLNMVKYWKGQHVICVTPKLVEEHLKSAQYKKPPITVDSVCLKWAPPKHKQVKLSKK
Experimental: Purified KAT8 was incubated with the relevant inhibitor (1% DMSO final) in a 2-fold serial dilution starting at 200 μM for 20 min at rt. Then, [^3H]Ac-CoA and biotinylated peptide were added to a total assay volume of 50 μL and the reaction mixture was incubated at rt for 4 h. The reaction was stopped, and the mixture was transferred to a 96-well streptavidin scintillant coated FlashPlate (Perkin Elmer) and incubated for 60 min at rt. The FlashPlate was washed with 0.1% Tween-20, and the liquid scintillation counting (MicroBeta Microplate Counter, Perkin Elmer) was employed to measure the radioactive signal. Experiments were performed in biological triplicates. Signal reduction compared to control was plotted (as inhibition percentage) as a function of compound concentration and fitted by nonlinear regression (GraphPad Prism 8.0) finally yielding the IC50 values.

KAT3B = target: T2, KAT3B (Homo sapiens, UniProt Q09472); assay: HotSpot KAT assay, KAT3B
T2 construct: KAT3B (aa 1284–1672, 1 nM); purchased Reaction Biology Corporation
T2 sequence (Q09472 1284-1672): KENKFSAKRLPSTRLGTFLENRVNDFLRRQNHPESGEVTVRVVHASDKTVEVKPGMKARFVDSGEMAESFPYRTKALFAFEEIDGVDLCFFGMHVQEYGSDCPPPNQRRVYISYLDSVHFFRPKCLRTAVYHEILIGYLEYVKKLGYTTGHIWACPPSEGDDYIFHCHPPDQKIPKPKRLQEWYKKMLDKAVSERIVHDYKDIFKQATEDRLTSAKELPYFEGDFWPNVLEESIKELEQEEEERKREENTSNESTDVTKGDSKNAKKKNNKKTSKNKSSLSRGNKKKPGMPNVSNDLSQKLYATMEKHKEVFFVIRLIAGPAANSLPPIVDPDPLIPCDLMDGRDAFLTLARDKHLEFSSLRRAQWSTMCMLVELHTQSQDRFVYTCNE
Experimental: The effects of the compounds on other KATs were determined using the HotSpot KAT assay (Reaction Biology Corporation, Malvern, PA, USA) according to the supplier’s procedure. […] Histone peptide acetylation was assessed by liquid scintillation counting using a Tri-Carb 2800TR Liquid Scintillation Analyzer (Perkin Elmer). Experiments were performed in biological triplicates. Signal reduction compared to control was plotted (as inhibition percentage) as a function of compound concentration. In cases in which an IC50 was calculated, the values were fitted by nonlinear regression (GraphPad Prism 8.0).

KAT2B = target: T3, KAT2B (Homo sapiens, UniProt Q92831); assay: HotSpot KAT assay, KAT2B; details: enzyme 25 nM; NI = no inhibition at 200 μM; mean ± SD of three independent experiments
T3 construct: KAT2B (aa 492–658, 25 nM); purchased Reaction Biology Corporation
T3 sequence (Q92831 492-658): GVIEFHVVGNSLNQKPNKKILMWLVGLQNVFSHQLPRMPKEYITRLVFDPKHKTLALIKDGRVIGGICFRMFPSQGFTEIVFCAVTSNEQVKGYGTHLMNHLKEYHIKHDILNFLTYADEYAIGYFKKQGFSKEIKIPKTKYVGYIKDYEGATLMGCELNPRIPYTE
Experimental: (§1) The effects of the compounds on other KATs were determined using the HotSpot KAT assay (Reaction Biology Corporation, Malvern, PA, USA) according to the supplier’s procedure. The recombinant catalytic domains of human KAT2A (aa 323–837, 15 nM), KAT2B (aa 492–658, 25 nM), KAT3B (aa 1284–1672, 1 nM), KAT6A (aa 488–778, 10 nM), KAT6B (aa 657–1069, 10 nM), and full length human KAT5 (25 nM) and KAT7 (25 nM) were used. Each enzyme was incubated with the relevant histone peptide [H3 peptide for KAT2A, KAT2B, KAT3B, KAT6A, and KAT7 (2.5–5 μM, depending on the KAT isoform); H2A peptide for KAT5 (1.25 μM); H4 peptide for KAT6B (2.5 μM)] as a substrate and radio-isotope-labeled [^3H]Acetyl-CoA (0.2–1.5 μM, depending on the KAT isoform) as an acetyl donor in the assay buffer [50 mM Tris–HCl (pH 8.0), 50 mM NaCl, 0.1 mM EDTA, 1 mM DTT, 0.1 mM PMSF, 1% DMSO] for 1 h at 30 °C in the presence or absence of various compounds (1% DMSO final) titrated in a 2-fold serial dilution starting at 200 μM. Histone peptide acetylation was assessed by liquid scintillation counting using a Tri-Carb 2800TR Liquid Scintillation Analyzer (Perkin Elmer). Experiments were performed in biological triplicates. Signal reduction compared to control was plotted (as inhibition percentage) as a function of compound concentration. In cases in which an IC50 was calculated, the values were fitted by nonlinear regression (GraphPad Prism 8.0).

KAT2A = target: T4, KAT2A (Homo sapiens, UniProt Q92830); assay: HotSpot KAT assay, KAT2A; details: control compound; read-out: IC50 KAT2A (15 nM)
T4 construct: human KAT2A (aa 323–837, 15 nM); purchased Reaction Biology Corporation
T4 sequence (Q92830 323-837): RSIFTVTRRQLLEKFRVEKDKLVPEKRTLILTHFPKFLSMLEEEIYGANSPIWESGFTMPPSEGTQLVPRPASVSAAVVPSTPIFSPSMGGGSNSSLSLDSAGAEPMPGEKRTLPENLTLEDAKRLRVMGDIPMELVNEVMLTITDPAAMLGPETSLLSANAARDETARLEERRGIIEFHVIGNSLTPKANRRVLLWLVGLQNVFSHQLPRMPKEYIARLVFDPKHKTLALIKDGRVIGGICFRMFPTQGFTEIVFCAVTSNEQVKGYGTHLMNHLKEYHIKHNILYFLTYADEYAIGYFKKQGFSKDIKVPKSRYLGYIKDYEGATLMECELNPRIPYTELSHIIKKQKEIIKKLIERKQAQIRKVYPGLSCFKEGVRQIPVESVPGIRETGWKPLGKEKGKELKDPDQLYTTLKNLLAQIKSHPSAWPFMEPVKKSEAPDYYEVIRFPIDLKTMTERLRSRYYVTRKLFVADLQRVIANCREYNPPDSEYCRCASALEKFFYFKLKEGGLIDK
Experimental: as §1

[1] = read-out: IC50 KAT8 (5 nM), enzyme 5 nM, 2-fold serial dilution from 200 μM, NI = no inhibition at 200 μM, mean ± SD of three independent experiments
[2] = read-out: IC50 KAT3B (1 nM), enzyme 1 nM, NI = no inhibition at 200 μM, mean ± SD of three independent experiments

SMILES | IC50 (KAT8; [1]) | IC50 (KAT3B; [2]) | IC50 (KAT2B) | IC50 (KAT2A) | IC50 (KAT8) | IC50 (KAT3B)
CC1=NN(c2ccc(C(=O)O)cc2)C(=O)/C1=C\c1cccn1-c1ccccc1 [Compound 29, (Z)-4-(3-Methyl-5-oxo-4-((1-phenyl-1H-pyrrol-2-yl)methylene)-4,5-dihydro-1H-pyrazol-1-yl)benzoic Acid] | 18.6 ± 0.8 µM | 14.6 ± 0.6 µM | > 200 µM |  |  | 
CC1=NN(c2ccc(C(=O)O)cc2)C(=O)/C1=C\c1cc(C(=O)c2ccccc2C)c[nH]1 [Compound 13, (Z)-4-(3-Methyl-4-((4-(2-methylbenzoyl)-1H-pyrrol-2-yl)methylene)-5-oxo-4,5-dihydro-1H-pyrazol-1-yl)benzoic Acid] | 95 ± 10.2 µM | 8.9 ± 0.6 µM | > 200 µM |  |  | 
CC1=NN(c2ccc(C(=O)O)cc2)C(=O)/C1=C\c1ccccc1 [Compound 22, (Z)-4-(4-Benzylidene-3-methyl-5-oxo-4,5-dihydro-1H-pyrazol-1-yl)benzoic Acid] | 29.2 ± 1.7 µM | > 200 µM | > 200 µM |  |  | 
CC1=NN(c2ccc(C(=O)O)cc2)C(=O)/C1=C\c1c[nH]c2ccccc12 [Compound 27, (Z)-4-(4-((1H-Indol-3-yl)methylene)-3-methyl-5-oxo-4,5-dihydro-1H-pyrazol-1-yl)benzoic Acid] | 38.1 ± 2.9 µM | 4.6 ± 0.2 µM | > 200 µM |  |  | 
CC1=NN(c2ccc(C(=O)O)cc2)C(=O)/C1=C\c1cccn1C [Compound 28, (Z)-4-(3-Methyl-4-((1-methyl-1H-pyrrol-2-yl)methylene)-5-oxo-4,5-dihydro-1H-pyrazol-1-yl)benzoic Acid] | 15.1 ± 1 µM | 20.8 ± 1 µM | > 200 µM |  |  | 
CC1=NN(c2ccc(C(=O)O)cc2)C(=O)/C1=C\c1cc(C(=O)c2ccccc2[N+](=O)[O-])c[nH]1 [Compound 2, (Z)-4-(3-Methyl-4-((4-(2-nitrobenzoyl)-1H-pyrrol-2-yl)methylene)-5-oxo-4,5-dihydro-1H-pyrazol-1-yl)benzoic Acid] | 86.2 ± 10 µM | 9.1 ± 0.6 µM | > 200 µM |  |  | 
CC1=NN(c2ccc(C(=O)O)cc2)C(=O)/C1=C\c1cc(C(=O)c2ccccc2Cl)c[nH]1 [Compound 5, (Z)-4-(4-((4-(2-Chlorobenzoyl)-1H-pyrrol-2-yl)methylene)-3-methyl-5-oxo-4,5-dihydro-1H-pyrazol-1-yl)benzoic Acid] | 88.9 ± 12.1 µM | 5.3 ± 0.3 µM | > 200 µM |  |  | 
CC1=NN(c2ccc(C(=O)O)cc2)C(=O)/C1=C\c1cc(C(=O)c2ccccc2)c[nH]1 [Compound 1, (Z)-4-(4-((4-Benzoyl-1H-pyrrol-2-yl)methylene)-3-methyl-5-oxo-4,5-dihydro-1H-pyrazol-1-yl)benzoic Acid] | 90.5 ± 11.3 µM | 13.6 ± 1 µM | > 200 µM |  |  | 
CC1=NN(c2ccc(C(=O)O)cc2)C(=O)C1=Cc1ccco1 (mixture of isomers) [Compound 20, 4-(4-(Furan-2-ylmethylene)-3-methyl-5-oxo-4,5-dihydro-1H-pyrazol-1-yl)benzoic Acid] |  |  | > 200 µM |  | 16.8 ± 0.9 µM | 6.3 ± 0.4 µM
CC1=NN(c2ccc(C(=O)O)cc2)C(=O)/C1=C\c1ccn[nH]1 [Compound 24, (Z)-4-(4-((1H-Pyrazol-5-yl)methylene)-3-methyl-5-oxo-4,5-dihydro-1H-pyrazol-1-yl)benzoic Acid] | 44.1 ± 3 µM | > 200 µM | > 200 µM |  |  | 
CC1=NN(c2ccc(C(=O)O)cc2)C(=O)/C1=C\c1cc2ccccc2[nH]1 [Compound 26, (Z)-4-(4-((1H-Indol-2-yl)methylene)-3-methyl-5-oxo-4,5-dihydro-1H-pyrazol-1-yl)benzoic Acid] | 20.1 ± 0.9 µM | 1.6 ± 0.08 µM | > 200 µM |  |  | 
CC1=NN(c2ccc(C(=O)O)cc2)C(=O)/C1=C\c1cccs1 [Compound 21, (Z)-4-(3-Methyl-5-oxo-4-(thiophen-2-ylmethylene)-4,5-dihydro-1H-pyrazol-1-yl)benzoic Acid] | 20.8 ± 1.2 µM | 26.5 ± 1.7 µM | > 200 µM |  |  | 

More lines, now with the values ahead:

IC50 (KAT8; [1]) | IC50 (KAT3B; [2]) | IC50 (KAT2B) | IC50 (KAT2A) | IC50 (KAT8) | IC50 (KAT3B) | SMILES
17.2 ± 1.2 µM | > 200 µM | > 200 µM |  |  |  | Cc1nn(-c2ccc(C(=O)O)cc2)c(O)c1Cc1ccc[nH]1 [Compound 31, 4-(4-((1H-Pyrrol-2-yl)methyl)-5-hydroxy-3-methyl-1H-pyrazol-1-yl)benzoic Acid]
33.2 ± 2.4 µM | > 200 µM | > 200 µM |  |  |  | CC1=NN(c2ccc(C(N)=O)cc2)C(=O)/C1=C\c1ccc[nH]1 [Compound 37, (Z)-4-(4-((1H-Pyrrol-2-yl)methylene)-3-methyl-5-oxo-4,5-dihydro-1H-pyrazol-1-yl)benzamide]
 | 22.9 ± 1.3 µM | 39.7 ± 1.1 µM | 42.1 µM |  |  | CCCCCCCCCCCCCCCc1cccc(O)c1C(=O)O [I (AA), anacardic acid, reference compound]
26.9 ± 2.3 µM | > 200 µM | > 200 µM |  |  |  | Cc1nn(-c2ccc(C(=O)O)cc2)c(O)c1Cc1ccccc1 [Compound 32, 4-(4-Benzyl-5-hydroxy-3-methyl-1H-pyrazol-1-yl)benzoic Acid]
 | > 200 µM | > 200 µM |  | 38.1 ± 3.8 µM |  | O=C(O)c1ccc(N2N=C(Cc3ccccc3)/C(=C/c3ccc[nH]3)C2=O)cc1 [Compound 35, (Z)-4-(4-((1H-Pyrrol-2-yl)methylene)-3-benzyl-5-oxo-4,5-dihydro-1H-pyrazol-1-yl)benzoic Acid]
19.4 ± 0.9 µM | > 200 µM | > 200 µM |  |  |  | CC1=NN(c2ccc(C(=O)O)cc2)C(=O)/C1=C(/C)c1ccc[nH]1 [Compound 30, (Z)-4-(4-(1-(1H-Pyrrol-2-yl)ethylidene)-3-methyl-5-oxo-4,5-dihydro-1H-pyrazol-1-yl)benzoic Acid]
29.5 ± 1.8 µM | > 200 µM | > 200 µM |  |  |  | CC1=NN(c2ccc(C(=O)N(C)C)cc2)C(=O)/C1=C\c1ccc[nH]1 [Compound 38, (Z)-4-(4-((1H-Pyrrol-2-yl)methylene)-3-methyl-5-oxo-4,5-dihydro-1H-pyrazol-1-yl)-N,N-dimethylbenzamide]
19.3 ± 1.3 µM | > 200 µM | > 200 µM |  |  |  | CC1=NN(c2cccc(C(=O)O)c2)C(=O)/C1=C\c1ccc[nH]1 [Compound 36, (Z)-3-(4-((1H-Pyrrol-2-yl)methylene)-3-methyl-5-oxo-4,5-dihydro-1H-pyrazol-1-yl)benzoic Acid]
